# Legend:
# [1] = test system: ovariectomized (OVX) rats; experiment: Osteoporosis (bone mineral density) in ovariectomized rat model; type: in vivo, Sprague Dawley rats; details: oral in 20% hydroxypropyl β-cyclodextrin, daily for 35 days, femur x-ray image analysis, tibia quantitative computed tomography
# Description: Seventy-five day old female Sprague Dawley rats (weight range of 200g to 225 g) are obtained from Charles River Laboratories (Portage, Mich.). The animals are either bilaterally ovariectomized (OVX) or exposed to a Sham surgical procedure at Charles River Laboratories, and then shipped after one week. Upon arrival, they are housed in metal hanging cages in groups of 3 or 4 per cage and have ad libitum access to food (calcium content approximately 0.5%) and water for one week. Room temperature is maintained at 22.2°±1.7° C. with a minimum relative humidity of 40%. The photoperiod in the room is 12 hours light and 12 hours dark.
# Following the General Procedure, infra, the rats are treated daily for 35 days (6 rats per treatment group) and sacrificed by carbon dioxide asphyxiation on the 36th day. The 35 day time period is sufficient to allow maximal reduction in bone density, measured as described herein. At the time of sacrifice, the uteri are removed, dissected free of extraneous tissue, and the fluid contents are expelled before determination of wet weight in order to confirm estrogen deficiency associated with complete ovariectomy. […]
# The right femurs are excised and digitilized x-rays generated and analyzed by an image analysis program (NIH image) at the distal metaphysis. The proximal aspect of the tibiae from these animals are also scanned by quantitative computed tomography.
melting point [°C],Structure (SMILES),loss of bone mineral density [1]
114 to 116,"COc1ccc(-c2sc3cc(OC)ccc3c2C(=O)c2ccc(O)cc2)cc1 [Example 3, 2-(4-Methoxyphenyl)-3-(4-Hydroxybenzoyl)-6-Methoxybenzo[b]thiophene]",
138 to 140,"COc1ccc(C(=O)c2c(-c3ccc(O)cc3)sc3cc(O)ccc23)cc1 [Example 2, 2-(4-Hydroxyphenyl)-3-(4-Methoxybenzoyl)-6-Hydroxybenzo[b]thiophene]",
,"C#C[C@]1(O)CC[C@H]2[C@@H]3CCc4cc(O)ccc4[C@H]3CC[C@@]21C [ethynyl estradiol, 17-α-ethynyl estradiol]",a reduction in the loss of bone mineral density

# — patent US6403615B1, “2-Aryl-3-aroylbenzo {b} thiophenes useful for the treatment of estrogen deprivation syndrome” (Eli Lilly and Company, priority 1997, dated 2002)
